In ChEMBL document CHEMBL1201862, “PubChem BioAssay data set” (2004):
Activity calls are given as the source filed them.

Tests used:
[1] = Luminescence Cell-Based Dose Response HTS to Identify Activators of Luciferase Translation or Activity in H4 […] Cells. [Related pubchem assays: 1829 (Project Summary), 1814 (Primary HTS)]; format: functional
H4 = assay: Luminescence Cell-Based Dose Response HTS to Identify Activators of 5'UTR Stem-Loop Driven Prion Protein mRNA Translation in H4 Neuroglioblastoma Cells. [Related pubchem assays: 1829 (Project Summary), 1814 (Primary HTS)]; format: functional; conditions: Homo sapiens
T-cell = assay: loss of vesicle association with mouse CD8+ T cells – mouse 2C CD8+ T cells, flow cytometry, dose response (AID 485284); format: functional
[2] = Luminescence Cell-Based Dose Confirmation HTS to Identify Activators of 5'UTR Stem-Loop Driven Alpha-Synuclein mRNA Translation in H4 Neuroglioblastoma Cells. [Related pubchem assays: 1829 (Project Summary), 1814 (Primary HTS)]; format: functional
X-box-binding protein 1 = X-box-binding protein 1 (Homo sapiens, UniProt P17861); format: functional, Cricetulus griseus;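 further: confirmatory dose-response counter-screen serving a CHOP assay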
[3] = Vero E6 cell cytotoxicity, dose response, cytotoxicity control for non-replicating M. tuberculosis project, secondary assay (AID 492998); format: functional, VeroE6; conditions: Vero C1008
[4] = molecular target: DNA damage-inducible transcript 3 protein (Mus musculus, UniProt P35639); format: functional, Cricetulus griseus
cells = format: functional, cell-based
[5] = Luminescence Cell-Based Dose Response HTS to Identify Activators of Luciferase Translation or Activity in H4-C Neuroglioblastoma Cells. [Related pubchem assays: 1829 (Project Summary), 1814 (Primary HTS)]; format: functional
[6] = luciferase reporter signal suppression in cells – H4 neuroglioma cells, luminescence, dose response (AID 1990); format: functional, cell-based
[7] = alpha-synuclein stem-loop translation blockers – luminescence, H4 neuroglioblastoma cells, dose confirmation, confirmation (AID 2454); format: functional, cell-based;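 further: H4 neuroglioblastoma cells carrying an alpha-synuclein 5'UTR luciferase reporter; potency for inhibition of the luciferase signal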
BJ [8] = assay: cells; format: functional, cell-based; conditions: Homo sapiens
[9] = Luminescence Cell-Based Dose Response HTS to Identify Inhibitors of Luciferase Translation or Activity in H4-C Neuroglioblastoma Cells. [Related pubchem assays: 1813 (Primary HTS), 1827 (Project Summary)]; format: functional
BJ [10] = assay: BJ-TERT-LT-ST fibroblast viability loss – cell-based, RAS-independent, luminescence, dose response (AID 1935); format: functional; conditions: Homo sapiens;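 further: BJ fibroblasts immortalized with TERT plus LT and ST oncogenes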
[11] = luciferase reporter signal reduction – luminescence, H4-C neuroglioblastoma cells, dose response (AID 2458); format: functional, cell-based;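 further: H4 neuroglioblastoma cells stably carrying a luciferase reporter gene fusion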
[12] = Luminescence Cell-Based Dose HTS Response to Identify Inhibitors of 5'UTR Stem-Loop Driven Prion Protein mRNA Translation in H4-C Neuroglioblastoma Cells. [Related pubchem assays (depositor defined):AID1814, AID1827]; format: functional
[13] = Luminescence Cell-Based Dose Response HTS to Identify Activators of 5'UTR Stem-Loop Driven Prion Protein mRNA Translation in H4-C Neuroglioblastoma Cells. [Related pubchem assays: 1829 (Project Summary), 1814 (Primary HTS)]; format: functional
[14] = DRD fibroblast viability loss – cell-based, non-viral oncogenic, luminescence, dose response (AID 1934); format: functional; conditions: Homo sapiens
[15] = Luminescence Cell-Based Dose Retest to Confirm Activators of 5'UTR Stem-Loop Driven Alpha-Synuclein mRNA Translation in H4 Neuroglioblastoma Cells. [Related pubchem assays (depositor defined):AID1813, AID1829]; format: functional
[16] = Luminescence Cell-Based Dose Confirmation HTS to Identify Inhibitors of 5'UTR Stem-Loop Driven Alpha-Synuclein mRNA Translation in H4 Neuroglioblastoma Cells. [Related pubchem assays: 1827 (Project Summary), 1813 (Primary HTS)]; format: functional
BJ [17] = assay: BJ-TERT fibroblast viability loss – cell-based, RAS-independent, luminescence, dose response (AID 1933); format: functional; conditions: Homo sapiens
[18] = alpha-synuclein stem-loop luciferase translation blockers – H4 neuroglioma cells, luminescence, confirmation (AID 1988); format: functional, cell-based
Bcl-2-related protein A1 = molecular target: T1, Bcl-2-related protein A1 (Mus musculus, UniProt Q07440); format: functional;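 further: confirmatory dose–response counterscreen on Bfl-1, used to check hits from a UBC13 polyubiquitin inhibitor campaign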
T1 sequence (Q07440 whole entry): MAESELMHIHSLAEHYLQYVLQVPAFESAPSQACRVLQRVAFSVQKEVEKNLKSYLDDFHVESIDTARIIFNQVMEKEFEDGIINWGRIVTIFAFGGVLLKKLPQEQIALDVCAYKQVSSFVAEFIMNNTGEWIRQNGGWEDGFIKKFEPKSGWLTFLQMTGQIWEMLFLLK

[19] = molecular target: T2, Type-1 angiotensin II receptor (Homo sapiens, UniProt P30556); assay: agonist activity at AGTR1 – cell-based, uHTS hits, selectivity assay for APJ receptor agonist project, dose response (AID 488865); format: functional;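 further: beta-arrestin recruitment to AT1 measured by enzyme fragment complementation luminescence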
T2 sequence (P30556 whole entry): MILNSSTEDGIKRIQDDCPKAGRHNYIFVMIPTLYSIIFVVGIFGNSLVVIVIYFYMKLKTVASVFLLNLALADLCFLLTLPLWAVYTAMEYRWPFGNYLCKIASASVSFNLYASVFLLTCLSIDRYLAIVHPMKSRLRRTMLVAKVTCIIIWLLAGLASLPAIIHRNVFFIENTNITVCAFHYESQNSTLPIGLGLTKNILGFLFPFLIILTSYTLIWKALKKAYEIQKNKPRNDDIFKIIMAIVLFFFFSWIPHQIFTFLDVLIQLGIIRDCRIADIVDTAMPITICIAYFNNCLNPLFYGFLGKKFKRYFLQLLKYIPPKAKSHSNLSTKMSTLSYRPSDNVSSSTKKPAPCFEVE

[20] = molecular target: T3, DNA repair protein RAD52 homolog (Homo sapiens, UniProt P43351); format: functional, biochemical
T3 sequence (P43351 whole entry): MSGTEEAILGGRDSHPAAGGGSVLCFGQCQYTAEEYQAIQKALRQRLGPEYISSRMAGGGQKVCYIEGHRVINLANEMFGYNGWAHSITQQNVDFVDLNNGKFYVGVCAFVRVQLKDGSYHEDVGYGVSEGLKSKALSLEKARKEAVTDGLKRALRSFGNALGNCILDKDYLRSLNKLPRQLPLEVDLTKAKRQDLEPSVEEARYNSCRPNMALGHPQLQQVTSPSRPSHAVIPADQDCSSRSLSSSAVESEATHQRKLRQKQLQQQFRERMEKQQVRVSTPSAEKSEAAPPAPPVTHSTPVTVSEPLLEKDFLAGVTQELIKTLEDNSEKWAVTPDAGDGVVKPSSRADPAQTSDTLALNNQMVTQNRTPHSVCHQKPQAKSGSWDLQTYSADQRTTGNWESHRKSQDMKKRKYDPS

[21] = molecular target: T4, Ubiquitin-conjugating enzyme E2 N (Homo sapiens, UniProt P61088); format: functional
T4 sequence (P61088 whole entry): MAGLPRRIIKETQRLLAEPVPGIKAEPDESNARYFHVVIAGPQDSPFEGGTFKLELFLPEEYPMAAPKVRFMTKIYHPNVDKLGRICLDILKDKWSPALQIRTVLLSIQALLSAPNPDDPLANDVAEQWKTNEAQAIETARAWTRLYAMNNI

[22] = molecular target: T4, Ubiquitin-conjugating enzyme E2 N; format: functional; remark: listed apart in the source
Coagulation factor XII = molecular target: T5, Coagulation factor XII (Homo sapiens, UniProt P00748); assay: activated coagulation factor XII inhibitor potency, concentration-effect curve, cell-free (AID 716); format: functional
T5 sequence (P00748 whole entry): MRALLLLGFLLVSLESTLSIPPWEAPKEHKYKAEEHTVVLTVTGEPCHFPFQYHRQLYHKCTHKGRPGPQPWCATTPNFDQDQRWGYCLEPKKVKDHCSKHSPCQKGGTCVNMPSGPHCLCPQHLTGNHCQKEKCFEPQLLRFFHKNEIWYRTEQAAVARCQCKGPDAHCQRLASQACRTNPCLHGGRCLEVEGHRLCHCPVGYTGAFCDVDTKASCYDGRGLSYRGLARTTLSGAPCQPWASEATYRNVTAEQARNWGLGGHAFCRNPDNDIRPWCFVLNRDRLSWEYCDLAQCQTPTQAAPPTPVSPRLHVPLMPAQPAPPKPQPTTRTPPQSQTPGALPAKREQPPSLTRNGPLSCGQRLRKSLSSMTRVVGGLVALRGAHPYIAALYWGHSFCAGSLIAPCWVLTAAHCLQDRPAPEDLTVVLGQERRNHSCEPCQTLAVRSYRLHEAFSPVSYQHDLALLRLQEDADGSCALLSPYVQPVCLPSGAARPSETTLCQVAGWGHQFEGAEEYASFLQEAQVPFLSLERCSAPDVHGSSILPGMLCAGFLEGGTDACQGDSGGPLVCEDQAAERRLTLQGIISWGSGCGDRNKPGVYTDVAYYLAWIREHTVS

Chain of X-box-binding protein 1 (P17861 whole entry): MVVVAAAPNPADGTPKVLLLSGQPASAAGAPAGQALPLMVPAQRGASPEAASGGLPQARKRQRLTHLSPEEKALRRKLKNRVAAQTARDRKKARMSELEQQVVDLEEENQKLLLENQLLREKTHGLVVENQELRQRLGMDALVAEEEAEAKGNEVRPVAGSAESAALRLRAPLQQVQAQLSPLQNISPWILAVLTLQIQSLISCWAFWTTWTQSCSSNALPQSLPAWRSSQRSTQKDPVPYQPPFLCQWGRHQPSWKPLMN
Chain of DNA damage-inducible transcript 3 protein (P35639 whole entry): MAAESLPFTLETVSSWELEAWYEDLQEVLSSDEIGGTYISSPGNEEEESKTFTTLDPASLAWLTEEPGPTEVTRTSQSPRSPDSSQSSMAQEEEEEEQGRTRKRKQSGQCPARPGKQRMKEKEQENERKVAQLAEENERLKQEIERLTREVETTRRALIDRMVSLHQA

SMILES: O=C(CC1=NCCNC(c2ccccc2)C1)c1ccccc1O (stereo not drawn)
- EC50 [1]: 43.1 µM (active)
- EC50 (H4): 67.6 µM (active)
- EC50 (T-cell): 0.565 µM (active)
- EC50 [2]: 69.3 µM (active)

SMILES: O=C1NN(c2ccccc2)C(=O)/C1=C/c1ccc(Sc2ccc(Cl)cc2)o1
- Absolute IC50 (XBP1) (X-box-binding protein 1): 10 µM
- CC50 [3]: > 20 µM (active)
- Absolute IC50 (CHOP) [4]: 10 µM

SMILES: O=C(c1ccc(C[S+]([O-])c2ccccc2Cl)o1)N1CCN(c2ccccc2)CC1 (stereo not drawn)
- EC50 (cells): > 12 µM (not active)
- EC50 [5]: 1.46 µM (inconclusive)
- EC50 [6]: 8.01 µM (active)
- EC50 [7]: 2.83 µM (active)
- EC50 (BJ [8]): 25.9 µM (active)
- EC50 [9]: 1.46 µM (active)
- EC50 (BJ [10]): 1.22 µM (active)
- EC50 [11]: 1.16 µM (active)
- EC50 [12]: 0.464 µM (active)
- EC50 [13]: 0.464 µM (inconclusive)
- EC50 [14]: 0.614 µM (active)
- EC50 [15]: 0.811 µM (inconclusive)
- EC50 [16]: 0.811 µM (active)
- EC50 (BJ [17]): 1.18 µM (active)
- EC50 [18]: < 0.1 µM (active)

SMILES: COc1cccc2sc(N(CCCN(C)C)C(=O)c3ccc(S(=O)(=O)N4CCc5ccccc5C4)cc3)nc12
- IC50 (Bcl-2-related protein A1): > 20 µM (inactive)
- EC50 [19]: > 100 µM (inactive)
- AC50 [20]: 23.1 µM (active)
- IC50 [21]: 13.9 µM (active)
- IC50 [22]: 10.8 µM (active)

SMILES: O=C(CN1C(=O)c2ccccc2S1(=O)=O)N1CCN(c2ccccc2F)CC1
- IC50 (Coagulation factor XII): > 50 µM (inactive)
